According to patent publication US7361263B2, “Water treatment apparatus and method” (Sanyo Electric Co., Ltd., priority 2002, dated 2008):
Converted amounts (≈) assume the structure as drawn. Like-named read-outs stand apart in the source and are kept apart here.

Assays:
[1] = Ion chromatograph and total nitrogen analysis of electrolyzed amikacin sulfate solution; assay type: physicochemical; conditions: for Nitrogen Concentration Org-N: T-N minus NO3—N, NO2—N, NH4—N
[2] = High performance liquid chromatograph analysis of electrolyzed amikacin sulfate solution; assay type: physicochemical
[3] = test system: Staphylococcus aureus (staphylococcus bacteria) FDA 209P; assay: Test of antibacterial activity of amikacin sulfate (MIC, small amount broth dilution); assay type: cell-based
Method: (§1) In accordance with the MIC measurement by a small amount broth dilution method which is the standard method of the Japanese Society of Chemotherapy, the antibacterial activity of amikacin sulfate was evaluated. As the culture medium for measuring sensitivity, Cation Supplemented Mueller-Hinton Broth: CSMHB (obtained from EIKEN CHEMICAL CO., LTD.) was employed. This CSMHB was dividedly-poured 90 μl each into a U-shaped bottom 96-well microplate. Samples taken 0, 2, 4 and 6 hours from initiation of electrolysis described in the above 1. were prepared. A diluted solution was prepared in accordance with the standard method for each of these samples. […] The bacilli used in the present example are identical to the two types of bacilli used in Example 1, i.e. Staphylococcus aureus (staphylococcus bacteria) FDA […] and Escherichia coli (coliform bacillus) NIHJ JC-2. A solution including bacillus for inoculation similar to that of Example 1 was prepared. The solution including bacillus was inoculated approximately 0.005 ml each into each well of the plate set forth above within 15 minutes from preparation of the solution including bacillus. In this plate, a medium not containing the agent was poured into 1-2 wells as the control of the growth of the bacillus. Cultivation was conducted for 18 to 24 hours at 35° C. The evaluation method is identical to that employed in Example 1.

[4] = test system: Escherichia coli (coliform bacillus) NIHJ JC-2; assay: as above; assay type: cell-based
Method: as §1

[5] = test system: Escherichia coli (coliform bacillus) NIHJ JC-2; assay: Sterilizing activity test of glutaral (MIC, small amount broth dilution, 60 minutes contact); assay type: cell-based
Method: (§2) The sterilizing activity of glutaral was evaluated based on MIC measurement by a small amount broth dilution method, which is the standard method of the Japanese Society of Chemotherapy. In the present example, the presence of bacillus by the bacterial number of survivals after a solution including bacillus was brought into contact with glutaral for a predetermined period of time (60 minutes) taking into account the fact that sterilization is neutralized when glutaral is mixed with the culture medium. The pharmaceutical stock solution disclosed in the standard method was replaced with the sample of the present example for testing. As the culture medium for measuring sensitivity, Cation Supplemented Mueller-Hinton Broth: CSMHB (obtained from EIKEN CHEMICAL CO., LTD.) was used. This CSMHB was dividedly-poured 90 μl each into a U-shaped bottom 96-well microplate. This is called Plate 1. The samples taken 0, 2, 4 and 6 hours from initiation of electrolysis described in the above 1. were prepared. In accordance with the method of [Example 1] recited in the additional rule of the standard method, a diluted solution of sterilized phosphate buffer (PBS) was produced for each sample. In the present example, the test was carried out at 1⁄2 the scale cited in the standard method. The containing amount of glutaral in the first tube was approximately 1000 μg/ml titer. The PBS dilution was dividedly-poured 0.1 ml each into another U-shaped microplate. This is called plate 2. In the present example, Staphylococcus aureus (staphylococcus bacteria) […] and Escherichia coli (coliform bacillus) NIHJ JC-2 strain were employed as the bacilli for testing sensitivity. The bacillus to be tested on an agar media cultured overnight was suspended to 0.5 Mc Farland (approximately 10^8 CFU/ml) and diluted by ten times (approximately 10^7 CFU/ml) with sterilized physiologic saline as the solution including bacillus for inoculation. The water to be treated and the solution including bacillus were inoculated and mixed 0.01 ml each in each well of Plate 1 within 15 minutes from preparation of the solution including bacillus. In Plate 1, a culture medium not containing the agent was poured into 1-2 wells as the control of growth of bacillus. At an elapse of 60 minutes from the mixing, 10 μl of the solution of plate 2 was each introduced into the same well of Plate 1. Then, cultivation was conducted for 18 to 24 hours at 35° C. The criteria of Positive Growth (+) and Inhibited Growth (-) after cultivation was determined as set forth below. Positive growth (+) was accepted when cloudiness was identified by the naked eye or a precipitate of at least 1 mm in diameter, or when two or more masses of precipitate, even though the diameter thereof is below 1 mm, was identified. Inhibited growth (-) was accepted when cloudiness by the naked eye was not identified, or when only one precipitate with a diameter below 1 mm was identified.

[6] = test system: Staphylococcus aureus (staphylococcus bacteria) 209P; assay: as above; assay type: cell-based
Method: as §2

[7] = Gas chromatograph evaluation of decomposition of glutaral by electrolysis; assay type: physicochemical; conditions: six hours from initiation of electrolysis
[8] = test system: MOLT-4 cell; assay: Cytotoxicity (CC50) test, WST-8; assay type: cell-based, human
Source text: For the measurement of the number of cells, tetrazolium salt WST-8 (Cell Counting Kit-8 available as a kit) was employed as the chromophone. The basic principle of the cytotoxicity (CC50) test is set forth below. WST-8 is reduced by intracellular dehydrogenation enzyme to produce soluble formazan. Since the number of cells and the amount of generated formazan is linearly proportional, the number of cells can be readily measured by directly measuring the absorbancy of formazan at 450 nm. The specific procedure for measurement is set forth below. 180 μl of a culture medium was introduced into each of the wells in the range of rows A-D and columns 3-10 in a 96-well flat microtiter plate for diluting the agent. 240 μl of the sample taken at 0 hours from initiation of electrolysis was added to the well of row A, column 2 in the microtiter plate. 240 μl of the sample taken 2 hours from initiation of electrolysis was added to the well of row B, column 2. 240 μl of the sample taken 4 hours from initiation of electrolysis was added to the well of row C, column 2. 240 μl of the sample taken 6 hours from initiation of electrolysis was added to the well of row D, column 2. To produce respective columns of sample dilutions, samples of 60 μl each was taken from the above-described samples of 240 μl. These samples of 60 μl were sequentially added to the right side well to be sufficiently pipeted. This was conducted up to column 10. Two of U-bottom 96-well microtiter plates for cultivation were prepared, and 200 μl of PBS was applied to all the side-most wells. 100 μl of culture medium was introduced into each of the wells of rows B-G, columns 2-9. 150 μl of culture medium was introduced into the wells of columns 10 and 11. Then, 50 μl of cell suspension solution prepared to 5×10^6 cell/ml was introduced into each of the wells of rows B-G, columns 2-9 and column 11. The wells of column 10 were absent of cells. […] Then, the O.D. was measured at 450 nm and 620 nm using a microplate reader.

[9] = 6 hours from initiation of electrolysis
[10] = 6 hours from initiation of electrolysis, calculated
[11] = electrolysis for 6 hours or more, from formula value

NCC[C@H](O)C(=O)N[C@@H]1C[C@H](N)[C@@H](O[C@H]2O[C@H](CN)[C@@H](O)[C@H](O)[C@H]2O)[C@H](O)[C@H]1O[C@H]1O[C@H](CO)[C@@H](O)[C@H](N)[C@H]1O.O=S(=O)(O)O.O=S(=O)(O)O [amikacin sulfate, Amikacin sulfate]
Nitrate nitrogen (NO3—N) share of the total nitrogen (T-N) [1, 9]: approximately 50% | ammonia nitrogen (NH4—N) share of the total nitrogen (T-N) [1, 9]: approximately 50% | Nitrogen Concentration NH4—N ([1]; electrolyzing time 0 hours): 0 mg/L | Nitrogen Concentration NO2—N ([1]; electrolyzing time 0 hours): 0 mg/L | Nitrogen Concentration NO3—N ([1]; electrolyzing time 0 hours): 0.22 mg/L | Nitrogen Concentration T-N ([1]; electrolyzing time 0 hours): 80.1 mg/L | Nitrogen Concentration Org-N ([1]; electrolyzing time 0 hours): 79.88 mg/L | Nitrogen Concentration NH4—N ([1]; electrolyzing time 1 hour): 4.18 mg/L | Nitrogen Concentration NO2—N ([1]; electrolyzing time 1 hour): 0 mg/L | Nitrogen Concentration NO3—N ([1]; electrolyzing time 1 hour): 1 mg/L | Nitrogen Concentration Org-N ([1]; electrolyzing time 1 hour): 25.52 mg/L | Nitrogen Concentration NH4—N ([1]; electrolyzing time 2 hours): 9.06 mg/L | Nitrogen Concentration NO2—N ([1]; electrolyzing time 2 hours): 0 mg/L | Nitrogen Concentration NO3—N ([1]; electrolyzing time 2 hours): 2.39 mg/L | Nitrogen Concentration T-N ([1]; electrolyzing time 2 hours): 29.65 mg/L | Nitrogen Concentration Org-N ([1]; electrolyzing time 2 hours): 18.20 mg/L | Nitrogen Concentration NH4—N ([1]; electrolyzing time 3 hours): 10.93 mg/L | Nitrogen Concentration NO2—N ([1]; electrolyzing time 3 hours): 0 mg/L | Nitrogen Concentration NO3—N ([1]; electrolyzing time 3 hours): 4.21 mg/L | Nitrogen Concentration T-N ([1]; electrolyzing time 3 hours): 32.17 mg/L | Nitrogen Concentration Org-N ([1]; electrolyzing time 3 hours): 17.03 mg/L | Nitrogen Concentration NH4—N ([1]; electrolyzing time 4 hours): 13.43 mg/L | Nitrogen Concentration NO2—N ([1]; electrolyzing time 4 hours): 0 mg/L | Nitrogen Concentration NO3—N ([1]; electrolyzing time 4 hours): 8.6 mg/L | Nitrogen Concentration T-N ([1]; electrolyzing time 4 hours): 32.75 mg/L | Nitrogen Concentration Org-N ([1]; electrolyzing time 4 hours): 10.72 mg/L | Nitrogen Concentration NH4—N ([1]; electrolyzing time 5 hours): 16 mg/L | Nitrogen Concentration NO2—N ([1]; electrolyzing time 5 hours): 0 mg/L | Nitrogen Concentration NO3—N ([1]; electrolyzing time 5 hours): 11.82 mg/L | Nitrogen Concentration T-N ([1]; electrolyzing time 5 hours): 33.04 mg/L | Nitrogen Concentration Org-N ([1]; electrolyzing time 5 hours): 5.22 mg/L | Nitrogen Concentration NH4—N ([1]; electrolyzing time 6 hours): 17.84 mg/L | Nitrogen Concentration NO2—N ([1]; electrolyzing time 6 hours): 0 mg/L | Nitrogen Concentration NO3—N ([1]; electrolyzing time 6 hours): 16.94 mg/L | Nitrogen Concentration T-N ([1]; electrolyzing time 6 hours): 32.27 mg/L | Nitrogen Concentration Org-N ([1]; electrolyzing time 6 hours): -2.51 mg/L | amikacin sulfate decomposed ([2]; 2 hours from initiation of electrolysis): approximately 90% | amikacin sulfate decomposed ([2]; 4 hours and thereafter from initiation of electrolysis): approximately 99% | Concentration of amikacin sulfate ([2]; electrolyzing time 0 hours (taken as 1,000 mg/L)): 1000 µg/mL | Concentration of amikacin sulfate ([2]; electrolyzing time 2 hours, from peak area at retention time 4.2 minutes): 98.579 µg/mL | Concentration of amikacin sulfate ([2]; electrolyzing time 4 hours, from peak area at retention time 4.2 minutes): 15.914 µg/mL | Concentration of amikacin sulfate ([2]; electrolyzing time 6 hours, from peak area at retention time 4.2 minutes): 10.911 µg/mL | minimum inhibitory concentration (MIC) ([3]; electrolyzing time 0 hours): 0.195 µg/mL | relative value of the MIC (MIC at 0 hours set as 1) ([3]; electrolyzing time 0 hours): 1 | minimum inhibitory concentration (MIC) ([3]; electrolyzing time 2 hours): 1.56 µg/mL | relative value of the MIC (MIC at 0 hours set as 1) ([3]; electrolyzing time 2 hours): ⅛ | minimum inhibitory concentration (MIC) ([3]; electrolyzing time 4 hours): 6.25 µg/mL | relative value of the MIC (MIC at 0 hours set as 1) ([3]; electrolyzing time 4 hours): 1/32 | minimum inhibitory concentration (MIC) ([3]; electrolyzing time 6 hours): 100 µg/mL | relative value of the MIC (MIC at 0 hours set as 1) ([3]; electrolyzing time 6 hours): 1/512 | minimum inhibitory concentration (MIC) ([4]; 6 hours from initiation of electrolysis, as tested): > 100 µg/mL | minimum inhibitory concentration (MIC) ([4]; electrolyzing time 0 hours): 3.125 µg/mL | relative value of the MIC (MIC at 0 hours set as 1) ([4]; electrolyzing time 0 hours): 1 | minimum inhibitory concentration (MIC) ([4]; electrolyzing time 2 hours): 12.5 µg/mL | relative value of the MIC (MIC at 0 hours set as 1) ([4]; electrolyzing time 2 hours): ¼ | minimum inhibitory concentration (MIC) ([4]; electrolyzing time 4 hours): 50 µg/mL | relative value of the MIC (MIC at 0 hours set as 1) ([4]; electrolyzing time 4 hours): 1/16 | minimum inhibitory concentration (MIC), calculated based on formula (4) ([4]; electrolyzing time 6 hours, calculated): 664 µg/mL | relative value of the MIC (MIC at 0 hours set as 1) ([4]; electrolyzing time 6 hours, from calculated MIC): 1/212

O=CCCCC=O [glutaral]
minimum inhibitor concentration obtained from approximation formula 2 [5, 10]: 4600 µg/mL (≈ 45.9 mM) | minimum inhibitor concentration relative to before electrolysis [5, 11]: approximately 1/37 | minimum inhibitor concentration ([5]; electrolyzing time 0 hours): 31.25 µg/mL (≈ 0.312 mM) | relative value of the minimum inhibitor concentration (when preceding electrolysis is 1) ([5]; electrolyzing time 0 hours): 1 | minimum inhibitor concentration ([5]; electrolyzing time 2 hours): 125 µg/mL (≈ 1.25 mM) | relative value of the minimum inhibitor concentration (when preceding electrolysis is 1) ([5]; electrolyzing time 2 hours): ¼ | minimum inhibitor concentration ([5]; electrolyzing time 4 hours): >1000 µg/mL | relative value of the minimum inhibitor concentration (when preceding electrolysis is 1) ([5]; electrolyzing time 4 hours): < 1/32 | minimum inhibitor concentration ([5]; electrolyzing time 6 hours): >1000 µg/mL | relative value of the minimum inhibitor concentration (when preceding electrolysis is 1) ([5]; electrolyzing time 6 hours): < 1/32 | minimum inhibitor concentration obtained from approximation formula 1 [6, 10]: 1150 µg/mL (≈ 11.5 mM) | minimum inhibitor concentration relative to before electrolysis [6, 11]: approximately 1/18 | minimum inhibitor concentration ([6]; electrolyzing time 0 hours): 62.5 µg/mL (≈ 0.624 mM) | relative value of the minimum inhibitor concentration (when preceding electrolysis is 1) ([6]; electrolyzing time 0 hours): 1 | minimum inhibitor concentration ([6]; electrolyzing time 2 hours): 125 µg/mL (≈ 1.25 mM) | relative value of the minimum inhibitor concentration (when preceding electrolysis is 1) ([6]; electrolyzing time 2 hours): ½ | minimum inhibitor concentration ([6]; electrolyzing time 4 hours): 500 µg/mL (≈ 4.99 mM) | relative value of the minimum inhibitor concentration (when preceding electrolysis is 1) ([6]; electrolyzing time 4 hours): ⅛ | minimum inhibitor concentration ([6]; electrolyzing time 6 hours): >1000 µg/mL | relative value of the minimum inhibitor concentration (when preceding electrolysis is 1) ([6]; electrolyzing time 6 hours): < 1/16 | GC peak area (RT 3.14 minutes) relative to sample of 0 hours [7]: 1/25

OCl [hypochlorous acid]
contribution to cytotoxicity [8]: almost no contribution to cytotoxicity

O=S([O-])([O-])=S.[Na+].[Na+] [sodium thiosulfate]
contribution to cytotoxicity ([8]; in the electrolyzed samples, Molt-4 cells): almost no contribution to cytotoxicity
